Columns and labels:
Type in all cases: cell-based
ERG = target: T1, ERG (Homo sapiens, UniProt P11308); assay: ERG-dependent reporter assay in HEK293 cells; design: expressed in transfected cells; host or cells: HEK293; conditions: PUx3-Luc reporter, 48 hours, designated doses
T1 sequence (P11308 1-486 isoform P11308-3): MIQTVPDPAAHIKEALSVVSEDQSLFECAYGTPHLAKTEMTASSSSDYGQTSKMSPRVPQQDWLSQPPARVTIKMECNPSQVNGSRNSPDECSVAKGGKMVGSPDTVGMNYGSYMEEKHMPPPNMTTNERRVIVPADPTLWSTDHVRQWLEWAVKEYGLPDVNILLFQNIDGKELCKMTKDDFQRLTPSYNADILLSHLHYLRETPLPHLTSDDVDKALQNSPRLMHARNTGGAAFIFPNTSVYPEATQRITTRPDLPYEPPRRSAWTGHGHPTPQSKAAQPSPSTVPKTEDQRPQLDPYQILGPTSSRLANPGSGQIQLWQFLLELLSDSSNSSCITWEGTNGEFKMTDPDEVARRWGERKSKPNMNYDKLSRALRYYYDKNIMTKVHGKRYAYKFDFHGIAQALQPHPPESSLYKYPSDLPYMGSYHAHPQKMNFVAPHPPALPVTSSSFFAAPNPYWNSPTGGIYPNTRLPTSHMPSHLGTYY
Experimental: (§1) HEK293 cells were transiently transfected with empty vector (for the NT) or ERG-expressing plasmid as well as pRL-TK (internal control) and PUx3-Luc reporter. Cells were then exposed to DMSO vehicle or compounds at designated doses for 48 hours. Experiments were done in triplicate.

ETV1 = target: T2, ETV1 (Homo sapiens, UniProt P50549); assay: ETV1-dependent reporter assay in HEK293 cells; conditions: 48 hours
T2 construct: expressed in transfected cells; host or cells: HEK293
T2 sequence (P50549 1-477): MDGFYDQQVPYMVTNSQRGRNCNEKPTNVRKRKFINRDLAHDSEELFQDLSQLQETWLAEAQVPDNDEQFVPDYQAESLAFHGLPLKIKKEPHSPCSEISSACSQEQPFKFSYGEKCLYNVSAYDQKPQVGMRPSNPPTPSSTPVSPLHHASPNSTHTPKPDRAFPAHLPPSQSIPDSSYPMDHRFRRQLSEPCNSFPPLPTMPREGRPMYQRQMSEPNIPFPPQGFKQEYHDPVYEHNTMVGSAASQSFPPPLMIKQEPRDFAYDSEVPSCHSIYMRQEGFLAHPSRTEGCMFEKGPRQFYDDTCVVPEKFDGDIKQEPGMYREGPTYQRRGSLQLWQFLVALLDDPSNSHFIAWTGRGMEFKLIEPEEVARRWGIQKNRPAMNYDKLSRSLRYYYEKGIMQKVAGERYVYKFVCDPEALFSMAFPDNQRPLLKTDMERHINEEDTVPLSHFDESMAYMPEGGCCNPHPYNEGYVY
Experimental: as §1
Experiments were done as described above in FIG. 1.1a) except that ERG plasmid was replaced by ETV1 plasmid.

human GATA2 = target: T3, human GATA2 (Homo sapiens, UniProt P23769); assay: GATA2-dependent reporter assay in IHH cells; conditions: GATA-Luc reporter, 48 h
T3 construct: expressed in transfected cells; host or cells: IHH
T3 sequence (P23769 1-480): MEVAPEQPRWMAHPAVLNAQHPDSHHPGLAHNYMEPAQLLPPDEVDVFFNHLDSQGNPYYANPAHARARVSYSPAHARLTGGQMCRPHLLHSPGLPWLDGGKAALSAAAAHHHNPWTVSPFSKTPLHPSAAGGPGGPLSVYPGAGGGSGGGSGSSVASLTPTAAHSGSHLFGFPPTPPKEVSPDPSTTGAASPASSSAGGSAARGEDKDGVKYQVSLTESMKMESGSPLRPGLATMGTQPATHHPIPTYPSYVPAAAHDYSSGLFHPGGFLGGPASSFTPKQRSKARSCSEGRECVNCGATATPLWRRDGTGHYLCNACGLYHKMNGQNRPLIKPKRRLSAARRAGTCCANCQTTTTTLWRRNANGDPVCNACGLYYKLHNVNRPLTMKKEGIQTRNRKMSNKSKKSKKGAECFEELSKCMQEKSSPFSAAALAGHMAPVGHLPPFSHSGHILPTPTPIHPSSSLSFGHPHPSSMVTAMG
Experimental: K7174 is a known GATA2 inhibitor. The IHH cells were transiently transfected with empty vector (for the NT) or human GATA2-expressing plasmid as well as pRL-TK (internal control) and GATA-Luc reporter plasmids. Cells were exposed to DMSO vehicle or compounds for 48 h. Experiments were in triplicate.

human GATA3 = target: T4, human GATA3 (Homo sapiens, UniProt P23771); assay: GATA3-dependent reporter assay in IHH cells; conditions: 48 hours
T4 construct: expressed in transfected cells; host or cells: IHH
Experimental: The IHH cells were transiently transfected with empty vector (for the NT) or human GATA3-expressing plasmid as well as pRL-TK (internal control) and GATA-Luc reporter plasmids. Cells were exposed to DMSO vehicle or compounds for 48 hours. Experiments were done in triplicate.

human STING (hSTING) = target: T5, human STING (hSTING) (Homo sapiens, UniProt Q86WV6); assay: hSTING ISRE-luc reporter assay in 293T cells; conditions: 24 hours
T5 construct: expressed in transfected cells; host or cells: 293T
Experimental: ISRE-luc (reporter), pRL-TK (internal control) and hSTING-expressing plasmids were transiently transfected into 293T cells. Cells were exposed to DMSO vehicle control or compounds for 24 hours. Experiments were done in triplicate.

hSTING and/or mSTING = assay: hSTING- or mSTING-dependent ISRE-luc reporter assay in 293T cells; conditions: 24 hours
Experimental: ISRE-luc (reporter), pRL-TK (internal control) and hSTING- or mSTING-expressing plasmids were transiently transfected into 293T cells. Cells were exposed to DMSO vehicle control or compounds for 24 hours. Experiments were done in triplicate.

[1] = test system: phosphorylation of ERK in Panc 10.05 cells; assay: Western blot, phosphorylation of ERK in Panc 10.05 cells; conditions: 10 μM, 24 hours
Experimental: C-PARP, cleaved PARP. Panc10.05 cells were exposed to DMSO vehicle or compounds at designated doses for 24 hours.
Panc10.05 cells were exposed to DMSO vehicle or compounds at designated doses for 24 hours.

[2] = test system: phosphorylation of ERK in HCT-116 cells; assay: Western blot, phosphorylation of ERK in HCT-116 cells; conditions: 10 μM, 24 hours
Experimental: HCT-116 cells were exposed to DMSO vehicle or compounds at designated doses for 24 hours.

T5 sequence (Q86WV6 whole entry H232R): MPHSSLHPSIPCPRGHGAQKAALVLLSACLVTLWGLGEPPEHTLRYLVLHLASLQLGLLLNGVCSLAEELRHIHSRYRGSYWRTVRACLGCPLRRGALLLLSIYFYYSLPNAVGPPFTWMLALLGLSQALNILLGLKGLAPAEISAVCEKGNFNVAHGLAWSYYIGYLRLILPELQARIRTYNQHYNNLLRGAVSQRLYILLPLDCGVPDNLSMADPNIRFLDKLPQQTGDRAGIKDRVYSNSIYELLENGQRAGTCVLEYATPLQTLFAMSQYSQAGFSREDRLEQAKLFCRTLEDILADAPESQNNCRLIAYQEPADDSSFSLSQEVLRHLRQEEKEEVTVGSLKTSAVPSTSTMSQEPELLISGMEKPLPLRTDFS
T4 sequence (P23771 whole entry): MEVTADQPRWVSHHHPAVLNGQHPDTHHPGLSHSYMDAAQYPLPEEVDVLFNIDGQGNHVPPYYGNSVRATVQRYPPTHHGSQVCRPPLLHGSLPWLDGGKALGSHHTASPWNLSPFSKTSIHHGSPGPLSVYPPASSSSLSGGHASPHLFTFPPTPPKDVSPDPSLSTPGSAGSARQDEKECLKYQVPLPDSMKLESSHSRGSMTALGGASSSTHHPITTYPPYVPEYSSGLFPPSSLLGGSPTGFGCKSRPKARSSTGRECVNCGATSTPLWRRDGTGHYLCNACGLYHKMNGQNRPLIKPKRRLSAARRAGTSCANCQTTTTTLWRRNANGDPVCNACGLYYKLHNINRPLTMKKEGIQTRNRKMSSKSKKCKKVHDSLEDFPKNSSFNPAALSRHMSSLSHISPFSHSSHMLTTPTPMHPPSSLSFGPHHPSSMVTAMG

| Structure (SMILES) | ERG inhibition in ERG-dependent reporter assay (ERG) | ETV1 inhibition in ETV1-dependent reporter assay (ETV1) | GATA2 inhibition in GATA2-dependent reporter assay (human GATA2) | activation of hSTING in ISRE-luc reporter assay (human STING (hSTING)) | other results |
| --- | --- | --- | --- | --- | --- |
| Clc1ccc(-c2nc(Cc3c[nH]c4ccccc34)oc2-c2ccc(Cl)cc2)cc1 [Compound 661] | ERG inhibitors | ETV1 inhibitors |  |  |  |
| COc1ccc2[nH]c(C)c(Cc3nc(-c4ccccc4)c(-c4ccccc4)o3)c2c1 [Compound 639] | ERG inhibitors |  |  |  |  |
| Clc1ccccc1-c1nc(Cc2c[nH]c3ccccc23)oc1-c1ccccc1Cl [Compound 662] | ERG inhibitors | ETV1 inhibitors |  |  |  |
| Fc1cccc(-c2nc(Cc3c[nH]c4ccccc34)oc2-c2cccc(F)c2)c1 [Compound 650] |  | ETV1 inhibitors | GATA2 inhibitors | activate hSTING | activity against GATA3 in GATA3-dependent reporter assay (human GATA3; 10 μM): active against GATA3 |
| Fc1cccc(-c2nc(CN3CCC(c4noc5ccccc45)CC3)[nH]c2-c2cccc(F)c2)c1 [Compound 1100] |  |  |  |  | activation of hSTING and/or mSTING in ISRE-luc reporter assay (hSTING and/or mSTING): activate hSTING and/or mSTING; suppression of phosphorylation of ERK (Western blot) [1]: potently suppressed phosphorylation of ERK |
| Oc1cccc(-c2nc(CCCc3c[nH]c4ccccc34)oc2-c2cccc(O)c2)c1 [Compound 676] |  |  | GATA2 inhibitors | activate human STING (hSTING) | activity against GATA3 in GATA3-dependent reporter assay (human GATA3; 10 μM): inactive against GATA3; activity against GATA3 in GATA3-dependent reporter assay (human GATA3; compounds at 5 μM): inactive against GATA3 |
| COc1cccc(N2CCN(C(=O)C/C(=C/Cc3ccc(OC)c(F)c3)c3ccccc3)CC2)c1 [Compound 1237] |  |  |  |  | suppression of phosphorylation of ERK (Western blot) [1]: potently suppressed phosphorylation of ERK; suppression of phosphorylation of ERK (Western blot) [2]: potently suppressed phosphorylation of ERK |
| COc1ccc(CC/C(=C/C(=O)N2CCC(O)(c3ccccc3)CC2)c2ccc(Cl)cc2)cc1F [Compound 1306] |  |  |  |  | suppression of phosphorylation of ERK (Western blot) [2]: potently suppressed phosphorylation of ERK |
| Cc1cccc(-c2nc(Cc3c[nH]c4ccccc34)oc2-c2cccc(C)c2)c1 [Compound 651] | ERG inhibitors | ETV1 inhibitors |  |  |  |
| FC(F)(F)c1cccc(-c2nc(Cc3c[nH]c4ccccc34)oc2-c2cccc(C(F)(F)F)c2)c1 [Compound 656] |  | ETV1 inhibitors |  | activate hSTING |  |
| COc1ccc(CC/C(=C/C(=O)N2CCC(O)(c3cccc(C(F)(F)F)c3)CC2)c2ccccc2)cc1F [Compound 1200] |  |  |  |  | suppression of phosphorylation of ERK (Western blot) [1]: potently suppressed phosphorylation of ERK |
| Oc1cccc(-c2nc(CCc3c[nH]c4ccccc34)oc2-c2cccc(O)c2)c1 [Compound 675] | ERG inhibitors | ETV1 inhibitors | GATA2 inhibitors |  | activity against GATA3 in GATA3-dependent reporter assay (human GATA3; 10 μM): inactive against GATA3 |
| OC1(c2cccc(C(F)(F)F)c2)CCN(Cc2nc(-c3cccc(F)c3)c(-c3cccc(F)c3)[nH]2)CC1 [Compound 1209] |  |  |  |  | suppression of phosphorylation of ERK (Western blot) [2]: potently suppressed phosphorylation of ERK |
| FC(F)(F)c1ccccc1-c1nc(Cc2c[nH]c3ccccc23)oc1-c1ccccc1C(F)(F)F [Compound 659] | ERG inhibitors |  |  |  |  |

Second part, led by results:

| ERG inhibition in ERG-dependent reporter assay (ERG) | ETV1 inhibition in ETV1-dependent reporter assay (ETV1) | GATA2 inhibition in GATA2-dependent reporter assay (human GATA2) | activation of hSTING in ISRE-luc reporter assay (human STING (hSTING)) | Structure (SMILES) | other results |
| --- | --- | --- | --- | --- | --- |
| ERG inhibitors |  |  |  | COc1ccc(-c2oc(Cc3c[nH]c4ccccc34)nc2-c2ccc(O)cc2)cc1 [Compound 699] |  |
|  |  | GATA2 inhibitors | activate hSTING | FC(F)(F)c1cccc(/C=C/c2nc(-c3ccccc3)c(-c3ccccc3)o2)c1 [Compound 693] | activity against GATA3 in GATA3-dependent reporter assay (human GATA3; 10 μM): inactive against GATA3 |
|  |  | GATA2 inhibitors |  | C(=C\c1nc(-c2ccccc2)c(-c2ccccc2)o1)/c1ccoc1 [Compound 686] | activity against GATA3 in GATA3-dependent reporter assay (human GATA3; 10 μM): active against GATA3 |
| ERG inhibitors |  |  |  | C(=N\c1oc(-c2ccccc2)nc1Sc1ccccc1)/c1ccccc1 [Compound V151] |  |
| ERG inhibitors |  |  | activate hSTING | Fc1ccccc1-c1nc(CCCc2c[nH]c3ccccc23)oc1-c1ccccc1F [Compound 678] |  |
|  | ETV1 inhibitors | GATA2 inhibitors | activate hSTING | COc1cccc(-c2oc(CCCc3c[nH]c4ccccc34)nc2-c2ccc[nH]2)c1 [Compound 830] |  |
| ERG inhibitors | ETV1 inhibitors |  |  | COc1ccc(-c2nc(Cc3c[nH]c4ccccc34)oc2-c2ccc(O)cc2)cc1 [Compound 697] |  |
|  | ETV1 inhibitors | GATA2 inhibitors | activate hSTING | Fc1cccc(-c2oc(Cc3c[nH]c4ccccc34)nc2-c2ccco2)c1 [Compound 838] |  |
|  |  | GATA2 inhibitors |  | c1ccc(-c2nc(CNCCc3c[nH]c4ccccc34)oc2-c2ccccc2)cc1 [Compound 795] | activity against GATA3 in GATA3-dependent reporter assay (human GATA3; 10 μM): inactive against GATA3; activation of hSTING and/or mSTING in ISRE-luc reporter assay (hSTING and/or mSTING): activate hSTING and/or mSTING |
|  |  | GATA2 inhibitors | activate human STING (hSTING) | O=C1Nc2ccccc2C1CCCc1nc(-c2cccc(F)c2)c(-c2cccc(F)c2)o1 (stereo not drawn) [Compound 770] | activity against GATA3 in GATA3-dependent reporter assay (human GATA3; compounds at 5 μM): inactive against GATA3 |
|  |  | GATA2 inhibitors |  | FC(F)(F)c1cccc(Cc2nc(-c3ccccc3)c(-c3ccccc3)o2)c1 [Compound 687] | activity against GATA3 in GATA3-dependent reporter assay (human GATA3; 10 μM): inactive against GATA3 |
